According to ChEMBL document CHEMBL1201862, “PubChem BioAssay data set” (2004):
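Dose response: 5 concentrations. Exposure: 48 h. Format: 96-well plates. Endpoint: linear interpolation; highest concentration if not reached. Here, GI50 denotes the concentration required for 50% inhibition of growth.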 Calls of active or inactive are those of the source. Rule as the data show it: active = GI50 up to about 1.1 µM and inactive = higher.

Key:
Test in all cases: NCI tumour cell line growth inhibition, 48 h
[1] = test system: 786-0
[2] = test system: A498
[3] = test system: CCRF-CEM
[4] = test system: EKVX
[5] = test system: HCT-116
[6] = test system: M14
[7] = test system: NCI-H460
[8] = test system: OVCAR-3
[9] = test system: OVCAR-4
[10] = test system: OVCAR-8
[11] = test system: RXF 393
[12] = test system: SF-268
[13] = test system: SK-MEL-2
[14] = test system: SK-OV-3
[15] = test system: SR
[16] = test system: UACC-62
[17] = test system: NCI-H226
[18] = test system: NCI-H522

Measured: GI50

N#CC1C2CCC3(CC2CCN1C(=O)c1ccccc1)OCCO3 (configuration not stated)
inactive: [1] > 100 µM | [2] > 100 µM | [3] > 100 µM | [4] > 100 µM | [5] > 100 µM | [6] > 100 µM | [7] > 100 µM | [8] > 100 µM | [9] > 100 µM | [10] > 100 µM | [11] > 100 µM | [12] > 100 µM | [13] 2.37 µM | [14] > 100 µM | [15] > 100 µM | [16] > 100 µM

N#CC(NNC(=O)Cc1ccccc1)c1ccc([N+](=O)[O-])cc1 (configuration not stated)
inactive: [1] > 100 µM | [3] > 100 µM | [5] > 100 µM | [6] > 100 µM | [17] > 100 µM | [7] > 100 µM | [18] > 100 µM | [9] > 100 µM | [10] > 100 µM | [11] > 100 µM | [12] > 100 µM | [13] > 100 µM | [14] > 100 µM | [15] > 100 µM | [16] > 100 µM

N/N=C1\C(=O)N(Cc2ccccc2)C(=O)C1C(=O)NCc1ccccc1 (configuration not stated)
inactive: [1] > 100 µM | [2] > 100 µM | [3] > 100 µM | [4] > 100 µM | [5] > 100 µM | [6] > 100 µM | [7] > 100 µM | [18] > 100 µM | [8] > 100 µM | [9] > 100 µM | [10] > 100 µM | [11] > 100 µM | [12] > 100 µM | [13] > 100 µM | [15] > 100 µM | [16] > 100 µM

Cc1ccc(S(=O)(=O)N[C@H](C(=O)O)c2ccccc2)cc1
inactive: [1] > 100 µM | [2] > 100 µM | [3] > 100 µM | [4] > 100 µM | [6] > 100 µM | [17] > 100 µM | [7] > 100 µM | [18] > 100 µM | [8] > 100 µM | [9] > 100 µM | [10] > 100 µM | [11] > 100 µM | [12] > 100 µM | [13] > 100 µM | [14] > 100 µM | [16] > 100 µM

CC1=C(C(=O)NCc2ccccc2)C(c2ccc([N+](=O)[O-])cc2)C(C(=O)NCc2ccccc2)=C(C)N1
inactive: [1] 44.2 µM | [2] 86.1 µM | [4] > 100 µM | [5] 21.9 µM | [6] 21.8 µM | [17] 31.8 µM | [7] 35.1 µM | [18] 28.5 µM | [8] 46.5 µM | [9] 17.4 µM | [10] 39.8 µM | [11] 31.6 µM | [12] 50.7 µM | [13] 30.8 µM | [16] 16.8 µM

CC(C)(C)C(=O)O[C@@H]1COC2C(O)COC21 (some centres not stated)
inactive: [1] > 100 µM | [3] > 100 µM | [5] > 100 µM | [6] > 100 µM | [7] > 100 µM | [18] > 100 µM | [8] > 100 µM | [9] > 100 µM | [10] > 100 µM | [11] > 100 µM | [12] > 100 µM | [15] > 100 µM | [16] > 100 µM

O=[N+]([O-])c1cccc(C2SCc3nc4ccccc4n32)c1 (configuration not stated)
inactive: [1] > 100 µM | [2] 77.6 µM | [3] > 100 µM | [4] 66.2 µM | [17] 39.6 µM | [7] > 100 µM | [9] 63.8 µM | [10] > 100 µM | [11] 73.5 µM | [12] > 100 µM | [13] > 100 µM | [14] > 100 µM | [15] 82.4 µM | [16] 34.3 µM

C/C(=N\N(c1ccccc1)c1ccccc1)c1c(O)cc(C)oc1=O
inactive: [1] > 100 µM | [2] > 100 µM | [3] 89.7 µM | [4] > 100 µM | [5] 45.1 µM | [6] > 100 µM | [17] > 100 µM | [7] 46.5 µM | [18] > 100 µM | [9] 45.1 µM | [10] > 100 µM | [12] > 100 µM | [13] > 100 µM | [14] > 100 µM | [15] 56.9 µM | [16] 54 µM

O=C1C(c2ccccc2)=C(c2ccccc2)[C@H](c2ccccc2)[C@]1(Cc1nnn(-c2ccc([N+](=O)[O-])cc2)c1N1CCOCC1)c1ccccc1
inactive: [1] > 37.5 µM | [2] > 37.5 µM | [3] > 37.5 µM | [4] > 37.5 µM | [5] 28.7 µM | [6] > 37.5 µM | [7] > 37.5 µM | [8] 9.93 µM | [9] 13.7 µM | [10] > 37.5 µM | [11] 9.62 µM | [14] > 37.5 µM | [16] > 37.5 µM

N#CCCc1nc2ccc(Br)cc2c(=O)n1CCO
inactive: [1] > 100 µM | [3] > 100 µM | [4] > 100 µM | [6] > 100 µM | [17] > 100 µM | [18] > 100 µM | [8] > 100 µM | [9] > 100 µM | [10] > 100 µM | [11] > 100 µM | [12] > 100 µM | [13] > 100 µM | [14] > 100 µM | [16] > 100 µM

Cc1cccc(CC(C)(C)C)c1NC(=O)C(=O)C(C(=O)c1ccc2ccccc2c1)C1OC(=O)c2ccccc21 (configuration not stated)
inactive: [1] 7.23 µM | [2] 13.2 µM | [4] 20.7 µM | [5] 6.73 µM | [6] 27.2 µM | [17] 2.4 µM | [7] 4.13 µM | [18] 9.53 µM | [8] 58.5 µM | [9] 41.5 µM | [10] 6.58 µM | [11] 3.4 µM | [12] 8.53 µM | [13] 14.4 µM | [14] 26.5 µM | [15] 3.72 µM | [16] 7.52 µM

CC(C)C(/C=C/c1ccccc1)=N\NC(=O)N/N=C(/C=C/c1ccccc1)C(C)C
inactive: [1] 18.9 µM | [3] 28.2 µM | [4] 8.36 µM | [5] 19.1 µM | [6] 39.4 µM | [17] 18.2 µM | [7] 14.4 µM | [18] 17.1 µM | [9] 35 µM | [10] 28.8 µM | [12] 48 µM | [13] 19.9 µM | [14] 40.2 µM | [15] 20.8 µM | [16] 56.9 µM

O=C(CN(Cc1ccccc1)Cc1ccccc1)N1CCc2c([nH]c3ccccc23)C1c1cccnc1 (configuration not stated)
inactive: [1] 5.87 µM | [2] 16.7 µM | [3] 4.11 µM | [4] 7.71 µM | [5] 3.74 µM | [6] 3.66 µM | [7] 5.58 µM | [18] 4.8 µM | [8] 5.82 µM | [9] 3.99 µM | [10] 6.1 µM | [12] 9.51 µM | [14] 80.9 µM | [15] 5.28 µM | [16] 11.1 µM

NC(=O)NC1C(C(N)=O)N(Cc2ccccc2)C(=O)N1Cc1ccccc1 (configuration not stated)
inactive: [1] > 100 µM | [3] > 100 µM | [4] > 100 µM | [5] > 100 µM | [6] > 100 µM | [7] > 100 µM | [18] > 100 µM | [8] > 100 µM | [9] > 100 µM | [10] > 100 µM | [12] > 100 µM | [13] > 100 µM | [14] > 100 µM | [15] > 100 µM | [16] > 100 µM

COc1cccc(-c2cc(O)c3cc(OC)c(OC)cc3n2)c1
inactive: [1] 46.6 µM | [3] 31.8 µM | [4] 97.7 µM | [6] 37.9 µM | [7] 30.3 µM | [18] 19.8 µM | [10] 45.2 µM | [14] 87.3 µM | [15] 56.1 µM | [16] 43.6 µM

CC(Oc1ccc(OCC2CCCCC2)cc1)C(=O)OCC(=O)c1ccc(-c2ccccc2)cc1 (configuration not stated)
inactive: [1] > 100 µM | [2] > 100 µM | [3] > 100 µM | [5] > 100 µM | [6] > 100 µM | [17] > 100 µM | [7] > 100 µM | [18] > 100 µM | [8] > 100 µM | [9] > 100 µM | [10] > 100 µM | [11] > 100 µM | [12] > 100 µM | [13] > 100 µM | [14] > 100 µM | [16] > 100 µM

COCC(=O)CP(=O)(OC)OC
inactive: [1] > 100 µM | [2] > 100 µM | [3] > 100 µM | [4] > 100 µM | [5] > 100 µM | [6] > 100 µM | [7] > 100 µM | [18] > 100 µM | [8] > 100 µM | [9] > 100 µM | [10] > 100 µM | [11] > 100 µM | [12] > 100 µM | [13] > 100 µM | [14] > 100 µM | [16] > 100 µM

Cc1cccc2c1Oc1ncccc1C2NC(=O)CN(C)C (configuration not stated)
inactive: [1] > 10 µM | [3] > 10 µM | [4] > 10 µM | [6] > 10 µM | [17] > 10 µM | [7] > 10 µM | [18] > 10 µM | [8] > 10 µM | [9] > 10 µM | [10] > 10 µM | [12] > 10 µM | [13] > 10 µM | [14] > 10 µM | [15] > 10 µM | [16] > 10 µM
